These results are taken from paper PMC12916490 (Molecular Psychiatry, 2025).

Some results are limits rather than exact numbers.

The first test concerns the target T1, hTAAR1 (Homo sapiens, UniProt Q96RJ0).
T1 construct: expressed in transfected cells
T1 sequence (Q96RJ0 1-339): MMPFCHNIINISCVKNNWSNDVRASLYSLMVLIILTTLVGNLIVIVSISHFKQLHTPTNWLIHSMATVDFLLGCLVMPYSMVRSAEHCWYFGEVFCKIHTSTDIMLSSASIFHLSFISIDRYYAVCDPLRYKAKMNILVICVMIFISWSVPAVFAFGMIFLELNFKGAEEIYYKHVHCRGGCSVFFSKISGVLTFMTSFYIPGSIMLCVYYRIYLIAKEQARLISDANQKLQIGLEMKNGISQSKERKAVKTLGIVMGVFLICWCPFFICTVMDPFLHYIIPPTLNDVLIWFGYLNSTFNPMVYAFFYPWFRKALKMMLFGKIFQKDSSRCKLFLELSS
As to the kind of experiment: Functional activity at human TAAR1 (cAMP). The class given is cell-based.
Conditions: not given
The procedure:
Activity at the human trace amine-associated receptor 1 (hTAAR1) was determined as previously described. More information can be found in the Supplementary information.
Then, the obtained RA values were used to calculate the bias factor (β) for each pathway combination. […]
pathway 1 over pathway 2. Brown-Forsythe and Welch ANOVA analyses were applied to estimate the statistical probability that β is different from zero.
3.3 Functional activity at the human TAAR1 […]
receptor 1 (hTAAR1) were generated by transfection with Lipofectamine 2000 (Invitrogen, Zug, Switzerland). The cells were harvested and pelleted by centrifugation at 900 rpm for 3 min at room temperature. The supernatant was then removed, and the cell pellet was resuspended in fresh culture medium. The cells were plated into 96 -well plates (100 μL, containing 80,000 cells per well) and incubated […]
The culture medium was removed, and the cells were washed once with 50 μL phosphate buffered saline without Ca2+ and Mg2+. Thereafter, 90 μL of Krebs -Ringer bicarbonate buffer (Sigma- […]
to 10 μM cAMP) was included on each plate. In addition, a reference plate containing RO5256390, β-phenylethylamine, and p-tyramine was included in each experiment. Test compound solution, β-phenylethylamine (as maximal response), or basal control were added at a volume of 30 μL, and the cells […]
Afterwards, the cells were lysed with 50 μL of detection mix solution […]
under heavy shaking. Fluorescence was then measured.
3.4 Plasma and brain tissue analysis
3.4.1 Analytical standards […]
to spike blank plasma or tissue homogenate at calibration standards of 1, 2.5, 5, 10, 25, 50, 100, 250, and […]
Extraction was performed by protein precipitation with 150 µL of acetonitrile added to 50 µL plasma in a 2-mL centrifuge tube. The samples were then vortexed for 10 s and shaken for 3 min at […]
For `COc1ccc(OC)c(CC(C)N)c1.Cl` (stereo not shown) [2,5-DMA, 2,5-Dimethoxyamphetamine hydrochloride], the EC50 was > 30 µM.

As to `CCCCCc1cc(OC)c(CC(C)N)cc1OC` (stereo not shown) [DOAM, 4-amyl-2,5-dimethoxyamphetamine], the EC50 was 21.8 µM.

Staying with this test, now noted: mean (95% CI); β-phenylethylamine as maximal response; read-out: hTAAR1 Activation efficacy Emax.
With `CCCCCc1cc(OC)c(CC(C)N)cc1OC` (stereo not shown) [DOAM, 4-amyl-2,5-dimethoxyamphetamine], the Emax stood at 86%.

Another test has as its system C57BL/6 J mice. As to the kind of experiment: Head-twitch response (HTR) dose-response in mice, 30-min session. The class given is in vivo, mouse. The conditions noted are these: 0.03 mg/kg s.c.; mean ± SEM. The procedure: (§1) Behavioral studies were conducted as previously described with minor modifications. Male C57BL/6 J mice (The Jackson Laboratory #000664, 24 mice/drug) were purchased at 8 weeks old, group housed for acclimation (3–5 per cage for 1–2 weeks) under a 12:12 light:dark cycle (07:00 local time = lights on), with ad libitum access to food and water at the NIDA IRP facilities in Baltimore, MD, USA. All experiments were approved by the NIDA IRP Animal Care and Use Committee. After acclimation to the vivarium facilities, each mouse was briefly anesthetized with isoflurane and a temperature transponder (14 × 2 mm, model IPTT-300, Bio Medic Data Systems, Inc., Seaford, DE, USA) was implanted subcutaneously (s.c.) on the back, posterior to the shoulder blades. After the implant, mice were single housed and allowed one week recovery prior to the start of experiments. […] Drugs were randomly assigned and administered s.c. as the weight of the form used at an injection volume of 0.01 mL/g body weight.
(§2) During experimental testing, mice were tested once every 1–2 weeks to avoid potential tolerance to behavioral effects of the test drugs and were tested 2–3 times in total per drug. Each test session began with a brief 5 min acclimation period to the testing arenas, followed by recording baseline body temperature using a handheld wand that was sensitive to the signals emitted from the s.c. transponder. After this, mice were injected s.c. with appropriate doses of test drug and returned to the chambers for a 30-min test session. During the dose-response sessions, locomotor activity was continuously recorded using open field chambers with photobeam arrays (Coulbourn Instruments, Holliston, MA, USA) that were modified with cylindrical inserts and custom floor panels that also allowed video recordings of each mouse to later quantify HTR activity (GoPro Hero 7 camera; 960p resolution at 120 frames per second). Videos for each mouse were analyzed post session using commercially available software used to quantify HTR as previously described.
(§3) Data analysis was performed with Prism software (version 10.1.2, GraphPad Software, Boston, MA, USA). The IC50 values from the radioligand binding assays were determined by nonlinear regression, using three independent concentration-response curves fitted to a one-site model. The Cheng-Prusoff equation was used to calculate Kᵢ values for the competing ligands. EC50 values were determined by applying nonlinear regression to concentration-response curves. Bias factors (β) were calculated based on the relative intrinsic activity approach. More detailed information can be found in the Supplementary information. Mean values for total number of HTR, change in body temperature from pre to post session (Δ°C), and total distance traveled (cm) for each drug dose were compared (p < 0.05) via Welch’s ANOVA with Dunnett’s T3 post test, comparing all doses to respective vehicle controls (0 mg/kg). Welch’s ANOVA with Dunnett’s T3 post test was also used to compare drug concentrations, but the data were compared to DOM in this case. Dose–response relationships for HTR and locomotor activities were plotted using bell-shaped curve fits, while temperature change data were plotted using four-parameter non-linear regression curve fits. The ascending phase of the HTR curve for each drug was used to determine ED50 potency values from four parameter non-linear regression fits. For combined DOM and DOAM administration, the plasma, brain tissue, and brain dialysate drug concentrations were compared using paired t-tests (p < 0.05). Ratios were compared using Holm-Sidak’s post hoc test following a repeated-measures one-way ANOVA (F (1.709, 6.835) = 70.80; p < 0.0001).
(§4) Locomotor activity and body temperature were also assessed to monitor other pharmacological effects of the drugs that may impact the HTR. […]
For `COc1ccc(OC)c(CC(C)N)c1.Cl` (stereo not shown) [2,5-DMA, 2,5-Dimethoxyamphetamine hydrochloride], the “HTR (count/30 min)” value is recorded as 5.8 ± 1.9 count.

As for `CCCCCc1cc(OC)c(CC(C)N)cc1OC` (stereo not shown) [DOAM, 4-amyl-2,5-dimethoxyamphetamine], the “HTR (count/30 min)” value was found to be 7.8 ± 1.6 count.

Still in this test, the particulars now being: 0.1 mg/kg s.c.; mean ± SEM.
With `COc1ccc(OC)c(CC(C)N)c1.Cl` (stereo not shown) [2,5-DMA, 2,5-Dimethoxyamphetamine hydrochloride], the “HTR (count/30 min)” value is on record as 6.7 ± 0.7 count.

In the case of `CCCCCc1cc(OC)c(CC(C)N)cc1OC` (stereo not shown) [DOAM, 4-amyl-2,5-dimethoxyamphetamine], the “HTR (count/30 min)” value came to 6.2 ± 1.6 count.

The test is the same for the next values; noted with them: 0.3 mg/kg s.c.; mean ± SEM.
For `COc1ccc(OC)c(CC(C)N)c1.Cl` (stereo not shown) [2,5-DMA, 2,5-Dimethoxyamphetamine hydrochloride], the “HTR (count/30 min)” value is reported as 7.3 ± 1.2 count.

Take `CCCCCc1cc(OC)c(CC(C)N)cc1OC` (stereo not shown) [DOAM, 4-amyl-2,5-dimethoxyamphetamine]: the “HTR (count/30 min)” value was determined as 6.5 ± 1.2 count.

The test is the same for the next values; noted with them: 1 mg/kg s.c.; mean ± SEM.
`COc1ccc(OC)c(CC(C)N)c1.Cl` (stereo not shown) [2,5-DMA, 2,5-Dimethoxyamphetamine hydrochloride]: the “HTR (count/30 min)” value was found to be 11.7 ± 2.1 count.

`CCCCCc1cc(OC)c(CC(C)N)cc1OC` (stereo not shown) [DOAM, 4-amyl-2,5-dimethoxyamphetamine]: the “HTR (count/30 min)” value is listed as 9.5 ± 1.2 count.

Still in this test, the particulars now being: 3 mg/kg s.c.; mean ± SEM.
For the molecule `COc1ccc(OC)c(CC(C)N)c1.Cl` (stereo not shown) [2,5-DMA, 2,5-Dimethoxyamphetamine hydrochloride], the “HTR (count/30 min)” value amounted to 15.3 ± 0.6 count.

Turning to `CCCCCc1cc(OC)c(CC(C)N)cc1OC` (stereo not shown) [DOAM, 4-amyl-2,5-dimethoxyamphetamine], the “HTR (count/30 min)” value was found to be 28.5 ± 2.6 count.

Still in this test, the particulars now being: 10 mg/kg s.c.; mean ± SEM.
As to `COc1ccc(OC)c(CC(C)N)c1.Cl` (stereo not shown) [2,5-DMA, 2,5-Dimethoxyamphetamine hydrochloride], the “HTR (count/30 min)” value was determined as 23.2 ± 1.9 count.

For the molecule `CCCCCc1cc(OC)c(CC(C)N)cc1OC` (stereo not shown) [DOAM, 4-amyl-2,5-dimethoxyamphetamine], the “HTR (count/30 min)” value was determined as 44.8 ± 3.6 count.

Staying with this test, now noted: 30 mg/kg s.c.; mean ± SEM.
Consider `COc1ccc(OC)c(CC(C)N)c1.Cl` (stereo not shown) [2,5-DMA, 2,5-Dimethoxyamphetamine hydrochloride], for which the “HTR (count/30 min)” value turned out to be 16.2 ± 5.0 count.

As to `CCCCCc1cc(OC)c(CC(C)N)cc1OC` (stereo not shown) [DOAM, 4-amyl-2,5-dimethoxyamphetamine], the “HTR (count/30 min)” value is listed as 26.0 ± 3.7 count.

Still in this test, the particulars now being: Mus musculus, sc, 0.5 h, read-out: HTR in mice ED50 (95% CI); s.c., 30 min session, ascending phase of dose-response curve.
`COc1ccc(OC)c(CC(C)N)c1.Cl` (stereo not shown) [2,5-DMA, 2,5-Dimethoxyamphetamine hydrochloride]: the ED50 worked out at 1.39 mg/kg.

On to `CCCCCc1cc(OC)c(CC(C)N)cc1OC` (stereo not shown) [DOAM, 4-amyl-2,5-dimethoxyamphetamine], for which the ED50 came out at 2.76 mg/kg.

The test is the same for the next values; noted with them: s.c., 30 min session.
Take `COc1ccc(OC)c(CC(C)N)c1.Cl` (stereo not shown) [2,5-DMA, 2,5-Dimethoxyamphetamine hydrochloride]: the “HTR in mice Emax” value came out at 23 total HTR count and the “HTR in mice Maximum rate” value was found to be 5 HTR count/5 min.

With `CCCCCc1cc(OC)c(CC(C)N)cc1OC` (stereo not shown) [DOAM, 4-amyl-2,5-dimethoxyamphetamine], the “HTR in mice Emax” value is on record as 45 total HTR count and the “HTR in mice Maximum rate” value came to 9 HTR count/5 min.

A further test deals with C57BL/6 J mice. As to the kind of experiment: Body temperature change in mice (dose-response sessions). The conditions noted are these: 0.03 mg/kg s.c.; pre to post 30-min session; mean ± SEM. The class given is in vivo, mouse. The method, then: as §1, §2, §3, §4
`COc1ccc(OC)c(CC(C)N)c1.Cl` (stereo not shown) [2,5-DMA, 2,5-Dimethoxyamphetamine hydrochloride] showed a ΔTemperature of 0.4 ± 0.1 °C.

As to `CCCCCc1cc(OC)c(CC(C)N)cc1OC` (stereo not shown) [DOAM, 4-amyl-2,5-dimethoxyamphetamine], the ΔTemperature turned out to be 0.0 ± 0.1 °C.

The same test, now with this note: 0.1 mg/kg s.c.; pre to post 30-min session; mean ± SEM.
In turn, `COc1ccc(OC)c(CC(C)N)c1.Cl` (stereo not shown) [2,5-DMA, 2,5-Dimethoxyamphetamine hydrochloride] registered a ΔTemperature of 0.3 ± 0.1 °C.

In turn, `CCCCCc1cc(OC)c(CC(C)N)cc1OC` (stereo not shown) [DOAM, 4-amyl-2,5-dimethoxyamphetamine] yielded a ΔTemperature of 0.0 ± 0.1 °C.

Still in this test, the particulars now being: 0.3 mg/kg s.c.; pre to post 30-min session; mean ± SEM.
In turn, `COc1ccc(OC)c(CC(C)N)c1.Cl` (stereo not shown) [2,5-DMA, 2,5-Dimethoxyamphetamine hydrochloride] registered a ΔTemperature of 0.5 ± 0.1 °C.

As to `CCCCCc1cc(OC)c(CC(C)N)cc1OC` (stereo not shown) [DOAM, 4-amyl-2,5-dimethoxyamphetamine], the ΔTemperature is -0.3 ± 0.2 °C.

Still in this test, the particulars now being: 1 mg/kg s.c.; pre to post 30-min session; mean ± SEM.
For `COc1ccc(OC)c(CC(C)N)c1.Cl` (stereo not shown) [2,5-DMA, 2,5-Dimethoxyamphetamine hydrochloride], the ΔTemperature stood at 0.2 ± 0.1 °C.

For the molecule `CCCCCc1cc(OC)c(CC(C)N)cc1OC` (stereo not shown) [DOAM, 4-amyl-2,5-dimethoxyamphetamine], the ΔTemperature was -0.1 ± 0.2 °C.

The same test, now with this note: 3 mg/kg s.c.; pre to post 30-min session; mean ± SEM.
As for `COc1ccc(OC)c(CC(C)N)c1.Cl` (stereo not shown) [2,5-DMA, 2,5-Dimethoxyamphetamine hydrochloride], the ΔTemperature turned out to be 0.2 ± 0.2 °C.

As to `CCCCCc1cc(OC)c(CC(C)N)cc1OC` (stereo not shown) [DOAM, 4-amyl-2,5-dimethoxyamphetamine], the ΔTemperature is -0.2 ± 0.1 °C.

Still in this test, the particulars now being: 10 mg/kg s.c.; pre to post 30-min session; mean ± SEM.
Turning to `COc1ccc(OC)c(CC(C)N)c1.Cl` (stereo not shown) [2,5-DMA, 2,5-Dimethoxyamphetamine hydrochloride], the ΔTemperature was -0.9 ± 0.2 °C.

As to `CCCCCc1cc(OC)c(CC(C)N)cc1OC` (stereo not shown) [DOAM, 4-amyl-2,5-dimethoxyamphetamine], the ΔTemperature is -0.2 ± 0.2 °C.

Still in this test, the particulars now being: 30 mg/kg s.c.; pre to post 30-min session; mean ± SEM.
Turning to `COc1ccc(OC)c(CC(C)N)c1.Cl` (stereo not shown) [2,5-DMA, 2,5-Dimethoxyamphetamine hydrochloride], the ΔTemperature was -4.0 ± 0.5 °C.

Consider `CCCCCc1cc(OC)c(CC(C)N)cc1OC` (stereo not shown) [DOAM, 4-amyl-2,5-dimethoxyamphetamine], for which the ΔTemperature was -3.9 ± 0.4 °C.
